Read-outs that look alike come from different tables or passages of the source.
Columns and labels:
[1] = tested on: human lung cancer cell Lu65; experiment: MTT assay, human lung cancer cell Lu65; assay type: cell-based
Method: (§1) Effect of platinum tetrachloride/hydroxyapatite (PtCl4/HAP) and hexachloroplatinate/hydroxyapatite (H2PtCl6/HAP) against human cancer cells (MTT assay)
(§2) According to “in vitro toxicity test using MTT”, which is an ordinary test method, MTT assay was performed for PtCl4/HAP (particle diameter 0.1 μm or less), and H2PtCl6/HAP (particle diameter 0.1 μm or less) by using 19 types of human cancer cells. PtCl4/HAP and H2PtCl6/HAP were used by adjusting the final dispersion concentration to 1.0% in a dispersion liquid each containing 10% platinum as a theoretical value. For comparison, MTT assay was performed for PtCl4 and CDDP. PtCl4 was dissolved at an adequate dose, and then used after serial dilution with PBS (−). For CDDP, injection liquid from Malco was used.

[2] = tested on: human lung cancer cell Lu99; experiment: MTT assay, human lung cancer cell Lu99; assay type: cell-based
Method: as §1, §2

[3] = tested on: fibroblasts at confluency; experiment: Microscopic observation of toxicity effect during resting stage; assay type: cell-based, rat
Description: A male mature rat was deeply anesthetized with ether, and disinfected by wiping carefully its tail with alcohol. The tail end part was cut by several centimeters, and the skin was removed from coccyx. Tendon was attached to the coccyx, and by culturing the same, fibroblasts can be recovered. Coccyx part was further cut finely with a sterilized pair of scissors, and adhered on a sterilized plastic plate with the cut surface down. After resting the plate for a while, DMEM supplemented with 10% FBS was added thereto. In approximately one week, fibroblasts germinated from the coccyx part, and proliferated in the plate. The fibroblasts collected from rat tail end were used for the following experiment.
From the result of Example 7, 2 ppm which is a value of platinum content that kills 50% of fibroblasts in CDDP during resting stage was set as a standard. Then, CDDP, PtCl4/HAP, PtCl4 and HAP dispersion liquids in an amount corresponding to 2 ppm of platinum content, were added to the fibroblasts at confluency in a medium, and cultured for 48 hours.

[4] = Lu65, platinum compound without hydroxyapatite, for comparison
[5] = Lu99, platinum compound without hydroxyapatite, for comparison

Q: With `[Cl][Pt-2]([Cl])([Cl])[Cl]` [H2PtCl4, tetrachloroplatinate] as the compound, how does the “IC50 of human lung cancer cells by MTT assay” value [1, 4] read?
A: 8.8 ppm

Q: What about the “Platinum content calculated from IC50 of human lung cancer cell by MTT assay” value (shortened to “Platinum content calculated from IC50”) [1, 4] of the same compound?
A: 5.1 ppm

Q: What about the “IC50 of human lung cancer cells by MTT assay” value [2, 5] of the same compound?
A: 9.1 ppm

Q: `[Cl][Pt-2]([Cl])([Cl])([Cl])([Cl])[Cl].[H+].[H+]` [H2PtCl6, hexachloroplatinate] was tested. Which “IC50 of human lung cancer cells by MTT assay” value [1] did it give?
A: 11.1 ppm

Q: What about the “Platinum content calculated from IC50” value [1] of the same compound?
A: 5.3 ppm

Q: What about the “IC50 of human lung cancer cells by MTT assay” value [2] of the same compound?
A: 7.2 ppm

Q: What about the “Platinum content calculated from IC50” value [2] of the same compound?
A: 3.4 ppm

Q: `[Cl][Pt-2]([Cl])([Cl])[Cl].[K+].[K+]` [K2PtCl4, dipotassium platinum tetrachloride] was tested. Which “IC50 of human lung cancer cells by MTT assay” value [1, 4] did it give?
A: 58.2 ppm

Q: And the “Platinum content calculated from IC50” value [1, 4]?
A: 27.4 ppm

Q: What about the “IC50 of human lung cancer cells by MTT assay” value [2, 5] of the same compound?
A: 12.1 ppm

Q: What about the “Platinum content calculated from IC50” value [2, 5] of the same compound?
A: 5.7 ppm

Q: Which results are given for `[Cl][Pt-2]([Cl])([Cl])[Cl].[Na+].[Na+]` [Na2PtCl4, disodium platinum tetrachloride]?
A: IC50 of human lung cancer cells by MTT assay [1, 4]: 8.8 ppm; Platinum content calculated from IC50 of human lung cancer cell by MTT assay [1, 4]: 4.5 ppm; IC50 of human lung cancer cells by MTT assay [2, 5]: 9.2 ppm; Platinum content calculated from IC50 of human lung cancer cell by MTT assay [2, 5]: 4.7 ppm

Q: How did the “Microscopic observation of cell form of cultured fibroblasts” value [3] turn out when Hydroxyapatite [HAP] was run?
A: almost no abnormality was observed

Q: For “platinum tetrachloride/hydroxyapatite [PtCl4/HAP]”, which “Microscopic observation of cell form of cultured fibroblasts” value [3] is on record?
A: fibroblasts did not lose their original form

— patent US20080069896A1, “Antitumor Composition” (Kabushiki Kaisha Sangi, priority 2004, published 2008)
